In PubChem BioAssay (NCI):
Where “and” joins values, the source holds several entries; their conditions need not be identical. Equal values may be shown once.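 Five concentrations, 48 hours, 96-well plates. GI50 is the concentration that inhibits growth by half. TGI: concentration producing complete growth inhibition.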

Columns and labels:
Assay in all cases: NCI tumour cell line growth inhibition, 48 h
[1] = tested on: 786-0 renal
[2] = tested on: A549 NSCLC
[3] = tested on: HOP-62 NSCLC
[4] = tested on: KM20L2 colon
[5] = tested on: M19-MEL melanoma
[6] = tested on: MALME-3M melanoma
[7] = tested on: MOLT-4 leukemia
[8] = tested on: OVCAR-3 ovarian
[9] = tested on: SNB-75 CNS
[10] = tested on: SR leukemia

[O-]c1ccccc1C=Nc1ccc2c(c1)CCC2.[O-]c1ccccc1C=Nc1ccc2c(c1)CCC2.[O]=[U+2]=[O]
GI50 [1]: 40.3 µM | TGI [1]: > 100 µM | GI50 [2]: > 100 µM | TGI [2]: > 100 µM | GI50 [3]: > 100 µM | TGI [3]: > 100 µM | GI50 [4]: 56.6 µM | TGI [4]: > 100 µM | GI50 [5]: > 100 µM | TGI [5]: > 100 µM | GI50 [6]: > 100 µM | TGI [6]: > 100 µM | GI50 [7]: 12.4 µM | TGI [7]: > 100 µM | GI50 [8]: > 100 µM | TGI [8]: > 100 µM | GI50 [9]: 82.7 µM | TGI [9]: > 100 µM

COC(=O)C1C(=O)CC2CCCCC21 (stereo not given)
TGI [1]: > 100 µM | TGI [2]: > 100 µM | TGI [3]: > 100 µM | TGI [4]: > 100 µM | TGI [5]: > 100 µM | TGI [6]: > 100 µM | TGI [7]: > 100 µM | TGI [8]: > 100 µM | TGI [9]: > 100 µM | TGI [10]: > 100 µM

CN(C)c1nc(=NCc2ccco2)ss1
TGI [1]: 16.9 µM | TGI [2]: > 76.7 µM | TGI [3]: 62.8 µM | TGI [4]: > 100 µM | TGI [5]: > 43.6 µM | TGI [6]: 54 µM | TGI [7]: 44.8 µM | TGI [8]: 63 µM | TGI [9]: 53.9 µM | TGI [10]: 15.3 µM

N#C/C(=C\c1cccc(O)c1O)C(N)=O
TGI [1]: > 100 µM | TGI [2]: > 100 µM | TGI [3]: > 100 µM | TGI [4]: > 100 µM | TGI [5]: > 100 µM | TGI [6]: > 100 µM | TGI [7]: > 100 µM | TGI [8]: > 100 µM | TGI [9]: 47.2 µM

CNc1ccc2ncccc2c1[N+](=O)[O-]
TGI [1]: > 100 µM | TGI [2]: > 100 µM | TGI [3]: > 100 µM | TGI [4]: > 100 µM | TGI [5]: > 100 µM | TGI [6]: > 100 µM | TGI [7]: > 100 µM | TGI [8]: > 100 µM | TGI [9]: > 100 µM | TGI [10]: > 100 µM

COc1ccc(-c2cc(C(=O)Nc3cc(C(F)(F)F)cc(C(F)(F)F)c3)c3ccccc3n2)cc1
TGI [1]: 28.1 µM | TGI [2]: 17.5 µM | TGI [3]: 30.3 µM | TGI [4]: 31.4 µM | TGI [5]: 63 µM | TGI [6]: 46.4 µM | TGI [7]: > 100 µM | TGI [8]: 15.5 µM | TGI [9]: 29.6 µM | TGI [10]: 38.5 µM

CCc1cccc(C)c1N1C(=O)C(=O)C(c2nc3ccccc3o2)C(=O)C1=O
TGI [1]: > 100 µM | TGI [2]: > 100 µM | TGI [3]: > 100 µM | TGI [4]: > 100 µM | TGI [5]: > 100 µM | TGI [6]: > 100 µM | TGI [7]: > 100 µM | TGI [8]: > 100 µM | TGI [9]: > 100 µM | TGI [10]: > 100 µM

CC(C)(O)/C=C/C(=O)[C@](C)(O)[C@H]1[C@H](O)C[C@@]2(C)[C@@H]3CC=C4[C@@H](C[C@H](O)C(=O)C4(C)C)[C@]3(C)C(=O)C[C@]12C
GI50 [1]: 0.218 µM | TGI [1]: 0.939 µM and 0.362 µM | GI50 [2]: 0.224 µM | TGI [2]: 16.5 µM | GI50 [3]: 0.337 µM | TGI [3]: 0.699 µM and 0.547 µM | GI50 [4]: 0.0872 µM | GI50 [5]: 0.0781 µM | TGI [5]: 20.7 µM | TGI [6]: 0.932 µM | GI50 [7]: 0.709 µM | TGI [7]: 11.8 µM | GI50 [8]: 0.125 µM | TGI [8]: 1.02 µM | GI50 [9]: 0.0496 µM | GI50 [10]: 0.39 µM | TGI [10]: 5.05 µM

C#CCNC(=O)NCCCCC(NC(=O)OCc1ccccc1)C(=O)OCc1ccccc1 (stereo not given)
TGI [1]: > 100 µM | TGI [2]: > 100 µM | TGI [3]: > 43 µM | TGI [4]: > 100 µM | TGI [5]: > 100 µM | TGI [6]: > 100 µM | TGI [7]: 51.9 µM | TGI [8]: > 100 µM | TGI [9]: > 100 µM | TGI [10]: > 100 µM

COC(=O)C1=C(CS(=O)c2ccc([N+](=O)[O-])cc2[N+](=O)[O-])C2C=CC1C2 (stereo not given)
TGI [1]: 62.6 µM | TGI [2]: > 100 µM | TGI [3]: > 100 µM | TGI [4]: 57.8 µM | TGI [5]: 64.2 µM | TGI [6]: 79.5 µM | TGI [7]: 59.8 µM | TGI [8]: 66.8 µM | TGI [9]: 76.6 µM

C#CCNC(=O)ON1C(=O)CCC1=O
TGI [1]: > 100 µM | TGI [2]: > 100 µM | TGI [3]: > 100 µM | TGI [4]: > 100 µM | TGI [5]: > 100 µM | TGI [6]: > 100 µM | TGI [7]: > 100 µM | TGI [8]: > 100 µM | TGI [9]: > 100 µM

O=C1OC(c2ccccc2)=N/C1=C\c1ccc(Oc2ccc(Cl)c(Cl)c2)cc1
TGI [1]: > 100 µM | TGI [2]: > 100 µM | TGI [3]: > 100 µM | TGI [4]: > 100 µM | TGI [5]: > 100 µM | TGI [6]: > 100 µM | TGI [7]: 60.6 µM | TGI [10]: 57 µM

Cc1ccc(S(=O)(=O)N=NC=C2c3ccccc3N(O)c3ccccc32)cc1
TGI [1]: 7.36 µM | TGI [2]: 20 µM | TGI [3]: 18.8 µM | TGI [4]: 12.4 µM | TGI [5]: 23.4 µM | TGI [6]: 25.5 µM | TGI [7]: 4.11 µM | TGI [8]: 30 µM | TGI [9]: 10.4 µM

O=C(C#Cc1ccccc1)N1c2ccccc2CC1c1c[nH]c2ccccc12 (stereo not given)
TGI [1]: 34.8 µM | TGI [2]: 49.1 µM | TGI [3]: 26.9 µM | TGI [4]: 67.5 µM | TGI [5]: 43.1 µM | TGI [6]: 37.6 µM | TGI [7]: 46.6 µM | TGI [8]: 32.1 µM | TGI [9]: 37.6 µM | TGI [10]: 45.3 µM

Cl/C(N=Nc1ccccc1)=N/Nc1ccccc1
TGI [1]: > 100 µM | TGI [2]: > 100 µM | TGI [3]: > 100 µM | TGI [4]: > 100 µM | TGI [5]: > 100 µM | TGI [6]: > 100 µM | TGI [7]: > 100 µM | TGI [10]: > 100 µM

O=c1nc(-c2ccccc2)cc(CC(O)c2ccc(Cl)c(Cl)c2)[nH]1 (stereo not given)
TGI [1]: > 100 µM | TGI [2]: > 100 µM | TGI [3]: > 100 µM | TGI [4]: > 100 µM | TGI [5]: > 100 µM | TGI [6]: > 100 µM | TGI [7]: > 100 µM | TGI [8]: > 100 µM | TGI [9]: > 100 µM

O=C(O)c1cc(=O)c2c([nH]c3ccccc32)s1
TGI [1]: > 100 µM | TGI [2]: > 100 µM | TGI [3]: > 100 µM | TGI [4]: > 100 µM | TGI [5]: > 100 µM | TGI [6]: > 100 µM | TGI [7]: > 100 µM | TGI [8]: > 100 µM | TGI [9]: > 100 µM

CC(=O)NC(CCCCN)C(=O)NCc1ccccc1 (stereo not given)
TGI [1]: > 100 µM | TGI [2]: > 100 µM | TGI [3]: > 100 µM | TGI [4]: > 100 µM | TGI [5]: > 100 µM | TGI [6]: > 100 µM | TGI [7]: > 100 µM | TGI [8]: > 100 µM | TGI [9]: > 100 µM

N/C(=N\NS(=O)(=O)c1ccccc1)Oc1ccc(Br)cc1Br
TGI [1]: > 100 µM | TGI [2]: > 100 µM | TGI [3]: > 100 µM | TGI [4]: > 100 µM | TGI [5]: > 100 µM | TGI [6]: > 100 µM | TGI [7]: > 100 µM | TGI [8]: > 100 µM | TGI [9]: > 100 µM | TGI [10]: > 100 µM

CC1=C2C(=CC(C)(C)[C@@H]2O)C(=O)[C@](C)(O)C12CC2
TGI [1]: 0.0532 µM and 0.067 µM | TGI [2]: 0.191 µM and 1.12 µM | GI50 [3]: 0.0233 µM | TGI [3]: 0.1 µM and 0.0872 µM | TGI [4]: 0.0744 µM | TGI [5]: 0.163 µM | GI50 [6]: 0.0486 µM | TGI [6]: 0.112 µM and 0.054 µM | GI50 [7]: 0.0137 µM | TGI [7]: 0.134 µM and < 0.0208 µM | GI50 [8]: 0.00835 µM | TGI [8]: 0.0327 µM and 0.0422 µM | GI50 [9]: 0.0315 µM and < 0.0142 µM | TGI [9]: 0.0723 µM and 0.0272 µM | GI50 [10]: 0.00351 µM | TGI [10]: 0.0744 µM and 0.268 µM

Cc1cc(NC(=O)C2C3C=CC(O3)C2C(=O)O)no1 (stereo not given)
TGI [1]: 34.9 µM | TGI [2]: > 100 µM | TGI [3]: > 100 µM | TGI [4]: 26.6 µM | TGI [5]: 77.7 µM | TGI [6]: > 100 µM | TGI [7]: > 100 µM | TGI [8]: > 100 µM | TGI [9]: > 100 µM | TGI [10]: 42.8 µM

Cc1cc(C)nc(/C(=N\NC(N)=O)C(=O)Nc2nc3ccc(C)cc3s2)c1
TGI [1]: > 100 µM | TGI [2]: > 100 µM | TGI [3]: > 100 µM | TGI [4]: > 100 µM | TGI [5]: > 100 µM | TGI [6]: > 100 µM | TGI [7]: > 100 µM | TGI [8]: > 100 µM | TGI [9]: > 100 µM | TGI [10]: 40.7 µM

CCOc1ccc(/C(C=O)=C(\Cl)c2ccc(OC)cc2)cc1
TGI [1]: > 100 µM | TGI [2]: > 100 µM | TGI [3]: > 100 µM | TGI [4]: > 100 µM | TGI [5]: > 100 µM | TGI [6]: > 100 µM | TGI [7]: > 31.6 µM | TGI [8]: > 100 µM | TGI [9]: > 100 µM | TGI [10]: > 100 µM
